{"source": "patent US20220304945A1", "about": "“METHODS OF TREATING METABOLIC SYNDROME RELATED CONDITIONS USING RETINOIC ACID RECEPTOR AGONISTS” (Cornell University, priority 2014, published 2022)", "assay_type_in_all_cases": "in vivo, mouse", "key": {"[1]": {"test_system": "4-HNE, oxidative stress in the liver", "assay": "4-HNE staining of liver, HF-fed mice", "conditions": "HF diet mice; vs high fat diet group", "description": "(§1) Mice, diet, and drug treatment. WT male C57/BL6 male mice were maintained on either a standard laboratory chow-fed diet (CFD) with 13% kcal fat, (diet #5053, Lab Diet, Inc, St. Louis, Mo.) or a high fat, western style diet (HFD) with 60% kcals from fat, (diet #58126, Lab Diet, Inc., St. Louis, Mo.) for 4 months. One month after the start of the high fat diet treatment, the high fat diet group was further split into 2 groups for 3 months: i) high fat diet and the drinking water containing 1% DMSO; ii) high fat diet and the drinking water containing 1.5 mg/100 ml AC261066, a specific RARβ agonist. Then mice were sacrificed by cervical dislocation. Blood and various tissue samples were harvested.\n4-hydroxynonenal (4-HNE) staining. Paraffin-embedded sections (from two to four mice per group) were deparaffinized and rehydrated, and antigen retrieval was performed using an antigen unmasking solution (Vector Laboratories, H-3300). After quenching endogenous peroxidase with 3% H2O2, the tissue sections were blocked with the blocking reagent (from the M.O.M. kit from Vector Laboratories). Then, tissue sections were incubated with a 4-HNE antibody (1:400; mouse monoclonal antibody; Abcam, ab48506) overnight at 4° C. The sections were then incubated with secondary antibodies (1:200, anti-mouse IgG from the M.O.M kit). […]"}, "HF-fed C57/BL6 mice": {"test_system": "HF-fed C57/BL6 mice", "assay": "Metabolic studies (body weight, GTT) in HF-fed wild type mice, 4 months", "conditions": "obese HF-fed mice, 3.0 mg/100 ml drinking water", "procedure": "Mice, diet, and drug treatment. Dietary Obesity Studies: Wild type (wt) male C57/BL6 male mice were maintained on either a standard laboratory chow-fed diet (Con) with 13% kcal fat, (diet #5053, Lab Diet, Inc, St. Louis, Mo.) or a high fat, western style diet (HFD) with 45% kcals from fat, (diet #58126, Lab Diet, Inc., St. Louis, Mo.) for 4 months. […]\nMetabolic Measurements-Glucose tolerance was performed using an intraperitoneal glucose tolerance test (GTT) as previously described (Trasino et al., Vitamin A Deficiency Causes Hyperglycemia and Loss of Pancreatic β-Cell Mass, J Biol Chem. 2014 Dec. 1. pii: jbc.M114.616763). […] Tail vein blood glucose was measured at 20, 40, 60 and 120 minutes after injection using a FreeStyle Lite Blood Glucose Monitoring System (Abbott Diabetes Care, Inc. Alameda, Calif.). To determine insulin secretion responses to glucose, serum fractions were isolated between 0-60 minutes post glucose injections and insulin concentrations were measured using an Ultrasensitive Insulin ELISA Kit (Alpco, Inc. Salem, N.H.). Random blood glucose measurements were taken from tail veins of 4 mice per group at 2-3 random time points daily Means are expressed as±standard error of the mean (S.E.M) and P-values were calculated using one-way analysis of variance followed by Bonferroni post-hoc analysis."}, "α-SMA": {"test_system": "α-SMA", "assay": "α-SMA immunofluorescence of kidney, HF-fed mice", "conditions": "HF diet mice 4 months", "description": "as §1\nCombined oil red O and Immunofluorescence staining. Fresh mouse kidney samples were embedded in optimal cutting temperature (OCT) medium and immediately frozen to −70 centigrade. Cryosections were then fixed in 4% formaldehyde for 1 hr at room temp. Slides were then rinsed three times in deionized water (dH2O) for 30 s, followed by treatment with 0.5% Triton X-100 in PBS for 5 min. Sections were then washed three times with PBS for 5 min. Samples were with incubated 2% bovine serum albumin (BSA) for 30 min at room temperature to block for unspecific antibody binding. […]"}, "RARβ2 mRNA": {"test_system": "RARβ2 mRNA", "assay": "Semi-quantitative PCR of pancreas, LRAT −/− vitamin A deficient mice", "conditions": "treated 8 weeks", "procedure": "FIG. 10. Gene expression of RARβ2 in pancreatic tissue from LRAT −/− vitamin A sufficient mice (VAS, normal control diet), LRAT −/− vitamin A deficient (VAD) mice, and LRAT −/− vitamin A deficient (VAD) mice treated with AC261066 for 8 weeks.\nSemi-Quantitate PCR. Total RNA was extracted from mouse tissues using TRIzol reagent (Life technologies) and (1 μg) was used to synthesize cDNA. cDNA synthesis was performed at 42° C. for 1 h in a final volume of 20 μl using qScript (Quanta, MD). Semi-quantitative PCR were performed Taq DNA polymerase (Invitrogen, CA). Three step PCR was run as follows: 94° C. for 30 s, 58-64° C. for 45 s for primer annealing and 72° C. for 1 min for primer extension. The number of cycles for each primer pair for amplification in the linear range was determined experimentally. PCR products were resolved on 2% agarose gels and visualized by staining with ehtidium bromide. Primers for gene expression used were as follows: […]"}}, "note": "“Also recorded” adds a separate entry of the source.", "data": [{"smiles": "CCCCOCCOc1nc(-c2ccc(C(=O)O)c(F)c2)sc1C", "note": "[AC261066]", "values": [{"measurement": "4-HNE level (oxidative stress, ROS) in liver", "setting": "[1]", "value": "reduces oxidative stress; also recorded: lower"}, {"measurement": "body weights", "setting": "HF-fed C57/BL6 mice", "value": "significant reductions"}, {"measurement": "α-SMA positive areas in kidney", "setting": "α-SMA", "value": "diminished; also recorded: not observed"}, {"measurement": "pancreatic RARβ2 mRNA level", "setting": "RARβ2 mRNA", "value": "increased"}]}]}
